Test results from ChEMBL document CHEMBL5143662, “Discovery of EP300/CBP histone acetyltransferase inhibitors through scaffold hopping of 1,4-oxazepane ring” (Bioorg Med Chem Lett, 2022).
Values after ≈ are worked out from the molar mass of the structure shown.

Key:
[1] = target: T1, Histone acetyltransferase p300 (Homo sapiens, UniProt Q09472); assay: Inhibition of N-terminal His tagged human EP300 (1159-1666 residues) expressed in Escherichia coli BL21 (DE3) using biotinylated H4 (1 to 25)-GSGSK peptide as substrate incubated for 1 hr by AlphaLISA assay
T1 sequence (Q09472 whole entry, the tested form may be a part): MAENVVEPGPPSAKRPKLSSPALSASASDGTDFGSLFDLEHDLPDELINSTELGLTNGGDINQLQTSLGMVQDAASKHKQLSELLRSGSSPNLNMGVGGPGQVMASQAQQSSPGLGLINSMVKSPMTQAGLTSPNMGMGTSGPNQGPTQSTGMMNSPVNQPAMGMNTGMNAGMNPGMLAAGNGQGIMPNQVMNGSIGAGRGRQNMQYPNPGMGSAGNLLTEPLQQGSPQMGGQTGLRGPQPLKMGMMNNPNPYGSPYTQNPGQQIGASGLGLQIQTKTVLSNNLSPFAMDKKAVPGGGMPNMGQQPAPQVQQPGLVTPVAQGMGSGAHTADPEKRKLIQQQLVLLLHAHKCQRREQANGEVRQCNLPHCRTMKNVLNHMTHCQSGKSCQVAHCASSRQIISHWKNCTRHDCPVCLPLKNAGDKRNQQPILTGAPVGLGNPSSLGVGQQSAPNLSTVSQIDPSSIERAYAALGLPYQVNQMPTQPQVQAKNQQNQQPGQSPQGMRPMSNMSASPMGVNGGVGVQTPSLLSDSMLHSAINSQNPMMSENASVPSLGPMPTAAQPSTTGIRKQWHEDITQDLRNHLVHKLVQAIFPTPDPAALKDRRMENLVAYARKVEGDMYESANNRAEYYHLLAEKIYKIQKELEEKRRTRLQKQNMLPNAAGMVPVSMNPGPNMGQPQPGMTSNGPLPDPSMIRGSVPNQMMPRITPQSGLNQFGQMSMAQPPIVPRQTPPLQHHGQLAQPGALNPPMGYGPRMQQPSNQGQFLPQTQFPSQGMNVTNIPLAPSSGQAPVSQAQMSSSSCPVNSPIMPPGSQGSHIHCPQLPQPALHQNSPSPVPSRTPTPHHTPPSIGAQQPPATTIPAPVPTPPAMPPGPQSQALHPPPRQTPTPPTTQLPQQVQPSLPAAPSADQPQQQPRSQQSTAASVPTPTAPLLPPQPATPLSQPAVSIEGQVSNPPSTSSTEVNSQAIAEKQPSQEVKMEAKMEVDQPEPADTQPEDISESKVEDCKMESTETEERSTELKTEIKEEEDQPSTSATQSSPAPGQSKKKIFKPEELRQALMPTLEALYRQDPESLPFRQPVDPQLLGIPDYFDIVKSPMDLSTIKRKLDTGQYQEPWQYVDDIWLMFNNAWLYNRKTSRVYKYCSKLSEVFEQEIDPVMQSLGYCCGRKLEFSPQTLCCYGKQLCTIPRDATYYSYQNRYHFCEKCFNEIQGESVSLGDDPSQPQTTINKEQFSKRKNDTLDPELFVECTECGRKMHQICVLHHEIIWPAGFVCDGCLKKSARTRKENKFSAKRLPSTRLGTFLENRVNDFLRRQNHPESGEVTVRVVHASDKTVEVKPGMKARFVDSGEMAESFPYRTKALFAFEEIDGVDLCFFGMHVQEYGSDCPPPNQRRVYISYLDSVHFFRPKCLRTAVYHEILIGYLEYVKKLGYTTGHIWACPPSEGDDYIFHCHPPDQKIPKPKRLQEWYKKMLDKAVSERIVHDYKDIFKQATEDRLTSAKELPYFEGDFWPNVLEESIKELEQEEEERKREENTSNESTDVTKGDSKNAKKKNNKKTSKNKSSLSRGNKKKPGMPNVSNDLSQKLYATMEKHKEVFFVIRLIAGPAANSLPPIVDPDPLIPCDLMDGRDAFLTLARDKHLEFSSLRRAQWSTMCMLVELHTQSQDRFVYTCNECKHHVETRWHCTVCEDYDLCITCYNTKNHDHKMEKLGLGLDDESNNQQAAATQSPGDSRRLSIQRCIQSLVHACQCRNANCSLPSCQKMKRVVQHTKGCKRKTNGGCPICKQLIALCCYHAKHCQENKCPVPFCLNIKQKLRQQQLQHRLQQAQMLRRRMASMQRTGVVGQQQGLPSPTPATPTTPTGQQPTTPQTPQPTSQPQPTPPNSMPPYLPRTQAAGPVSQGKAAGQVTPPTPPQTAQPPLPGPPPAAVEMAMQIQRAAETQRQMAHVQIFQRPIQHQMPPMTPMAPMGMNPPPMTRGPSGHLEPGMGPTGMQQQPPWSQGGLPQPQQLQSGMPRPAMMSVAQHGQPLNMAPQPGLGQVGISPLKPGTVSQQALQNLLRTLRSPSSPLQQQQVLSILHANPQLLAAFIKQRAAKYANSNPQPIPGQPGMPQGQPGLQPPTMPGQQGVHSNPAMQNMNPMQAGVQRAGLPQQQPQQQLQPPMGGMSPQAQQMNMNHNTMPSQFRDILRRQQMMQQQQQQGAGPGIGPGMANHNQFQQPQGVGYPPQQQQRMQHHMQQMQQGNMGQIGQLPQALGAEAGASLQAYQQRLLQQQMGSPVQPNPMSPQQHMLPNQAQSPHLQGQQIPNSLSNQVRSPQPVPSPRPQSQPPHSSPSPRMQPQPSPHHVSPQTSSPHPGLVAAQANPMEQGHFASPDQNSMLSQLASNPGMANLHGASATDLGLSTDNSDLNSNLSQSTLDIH

[2] = Metabolic stability in mouse liver microsomes assessed as parent compound remaining measured after 0.5 hr; type: ADME, Microsome; conditions: read-out: Stability
[3] = target: T1, Histone acetyltransferase p300; assay: Inhibition of EP300 in human LK2 cells assessed as reduction in intracellular histone H3 acetylation at lysine 27 residue incubated for 3 hrs by chemiluminescence based ELISA; type: cell-based
LK-2 [4] = assay: Antitumor activity against human LK2 cells xenografted in BALB/c nude mouse assessed as suppression of SOX2 mRNA level in […] at 50 to 200 mg/kg, po and measured after 6 hrs by qRT-PCR analysis relative to GADPH; type: functional, organism-based; conditions: dose 50-200 mg/kg, DDE = dose-dependent effect
[5] = Protein binding in mouse plasma assessed as unbound fraction; type: ADME, cell-free
[6] = Permeability of compound at pH 5.0 by PAMPA assay; type: ADME; conditions: read-out: permeability
[7] = Solubility of the compound at pH 1.2; type: physicochemical; conditions: buffer
[8] = Inhibition of SOX2 mRNA expression in human LK2 cells incubated for 6 hrs by RT-qPCR analysis; type: functional, cell-based; conditions: LK-2, 6 h
[9] = Lipophilicity, logD of compound; type: physicochemical; conditions: octanol/water
[10] = Permeability of compound at pH 7.4 by PAMPA assay; type: ADME; conditions: read-out: permeability
CREB-binding protein [11] = target: T2, CREB-binding protein (Homo sapiens, UniProt Q92793); assay: Inhibition of CBP (unknown origin) using biotinylated H4 (1 to […])-GSGSK peptide as substrate incubated for 1 hr by AlphaLISA assay
Target sequence in this assay (Q92793 whole entry): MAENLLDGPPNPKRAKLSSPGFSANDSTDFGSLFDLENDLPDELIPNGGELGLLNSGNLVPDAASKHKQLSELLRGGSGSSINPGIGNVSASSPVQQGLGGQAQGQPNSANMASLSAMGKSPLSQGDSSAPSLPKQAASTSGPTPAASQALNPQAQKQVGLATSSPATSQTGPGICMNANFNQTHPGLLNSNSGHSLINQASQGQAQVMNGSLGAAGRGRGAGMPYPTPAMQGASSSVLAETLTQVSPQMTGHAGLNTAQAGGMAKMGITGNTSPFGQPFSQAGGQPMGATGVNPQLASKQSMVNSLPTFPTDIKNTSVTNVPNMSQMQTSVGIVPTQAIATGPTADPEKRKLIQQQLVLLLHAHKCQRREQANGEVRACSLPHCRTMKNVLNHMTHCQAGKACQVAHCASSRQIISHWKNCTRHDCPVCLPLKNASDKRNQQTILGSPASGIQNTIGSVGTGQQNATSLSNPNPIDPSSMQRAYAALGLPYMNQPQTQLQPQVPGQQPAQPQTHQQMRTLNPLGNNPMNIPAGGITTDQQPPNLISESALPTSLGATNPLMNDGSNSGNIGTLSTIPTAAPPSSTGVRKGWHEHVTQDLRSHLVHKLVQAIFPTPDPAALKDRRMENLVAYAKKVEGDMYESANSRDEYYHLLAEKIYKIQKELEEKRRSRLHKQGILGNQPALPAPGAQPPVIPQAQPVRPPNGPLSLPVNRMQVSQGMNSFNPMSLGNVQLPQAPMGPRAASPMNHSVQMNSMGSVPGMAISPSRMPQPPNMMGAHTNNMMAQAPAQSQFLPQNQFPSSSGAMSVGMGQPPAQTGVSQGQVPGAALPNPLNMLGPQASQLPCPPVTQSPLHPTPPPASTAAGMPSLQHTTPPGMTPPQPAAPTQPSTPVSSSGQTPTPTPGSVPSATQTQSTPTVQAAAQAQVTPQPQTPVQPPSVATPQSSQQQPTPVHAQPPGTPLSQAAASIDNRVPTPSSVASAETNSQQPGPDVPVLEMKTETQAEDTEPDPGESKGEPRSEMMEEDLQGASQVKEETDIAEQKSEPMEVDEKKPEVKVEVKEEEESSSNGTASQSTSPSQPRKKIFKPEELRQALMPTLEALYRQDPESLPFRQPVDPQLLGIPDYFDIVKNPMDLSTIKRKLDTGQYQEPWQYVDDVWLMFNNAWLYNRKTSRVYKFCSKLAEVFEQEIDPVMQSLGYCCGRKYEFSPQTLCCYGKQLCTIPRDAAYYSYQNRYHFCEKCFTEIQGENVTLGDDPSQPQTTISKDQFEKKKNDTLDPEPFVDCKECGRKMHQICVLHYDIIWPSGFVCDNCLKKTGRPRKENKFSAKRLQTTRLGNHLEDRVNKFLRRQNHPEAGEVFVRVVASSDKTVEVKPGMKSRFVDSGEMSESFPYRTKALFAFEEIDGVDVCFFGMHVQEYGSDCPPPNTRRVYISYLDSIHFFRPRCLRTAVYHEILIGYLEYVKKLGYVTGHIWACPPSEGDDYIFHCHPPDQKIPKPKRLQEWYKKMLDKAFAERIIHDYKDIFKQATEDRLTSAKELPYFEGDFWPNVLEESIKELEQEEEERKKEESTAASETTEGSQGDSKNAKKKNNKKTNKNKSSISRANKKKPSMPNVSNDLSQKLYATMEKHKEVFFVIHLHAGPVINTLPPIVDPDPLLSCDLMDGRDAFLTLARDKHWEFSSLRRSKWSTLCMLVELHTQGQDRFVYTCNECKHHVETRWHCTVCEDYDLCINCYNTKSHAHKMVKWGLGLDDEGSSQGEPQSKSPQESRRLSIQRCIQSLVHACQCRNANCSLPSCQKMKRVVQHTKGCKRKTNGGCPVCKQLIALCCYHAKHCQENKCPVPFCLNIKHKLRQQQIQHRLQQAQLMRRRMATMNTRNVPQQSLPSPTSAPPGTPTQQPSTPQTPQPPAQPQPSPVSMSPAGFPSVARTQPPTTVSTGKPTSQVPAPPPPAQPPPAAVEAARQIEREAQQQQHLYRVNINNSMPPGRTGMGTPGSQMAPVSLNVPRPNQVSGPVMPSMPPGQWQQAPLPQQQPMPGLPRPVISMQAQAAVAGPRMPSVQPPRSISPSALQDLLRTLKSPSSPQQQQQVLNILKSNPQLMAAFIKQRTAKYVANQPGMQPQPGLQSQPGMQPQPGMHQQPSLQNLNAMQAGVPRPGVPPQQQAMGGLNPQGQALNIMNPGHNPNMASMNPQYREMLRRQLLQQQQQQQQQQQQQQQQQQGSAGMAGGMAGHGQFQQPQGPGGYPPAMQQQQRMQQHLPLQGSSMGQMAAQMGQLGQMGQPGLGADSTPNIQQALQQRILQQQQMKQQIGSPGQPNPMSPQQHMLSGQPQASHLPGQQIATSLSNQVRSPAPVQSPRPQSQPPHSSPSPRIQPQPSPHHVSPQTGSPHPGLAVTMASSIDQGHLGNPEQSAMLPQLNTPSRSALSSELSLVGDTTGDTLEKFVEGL

LK-2 [12] = assay: Antitumor activity against human LK2 cells xenografted in BALB/c nude mouse assessed as suppression of SOX2 mRNA level in tumor at 50 to 200 mg/kg, po and measured after 6 hrs by qRT-PCR analysis relative to GADPH; type: functional, organism-based; conditions: dose 50-200 mg/kg, DDE = dose-dependent effect
[13] = Solubility of the compound at pH 6.8; type: physicochemical; conditions: buffer
[14] = target: Histone acetyltransferase KAT6B (Homo sapiens, UniProt Q8WYB5); assay: Inhibition of MYST4 (unknown origin) using biotinylated H4 (1 to […])-GSGSK peptide as substrate incubated for 1 hr by AlphaLISA assay
CREB-binding protein [15] = target: T2, CREB-binding protein; assay: Inhibition of CBP (unknown origin) at 50 uM using biotinylated H4 (1 to 25)-GSGSK peptide as substrate incubated for 1 hr by AlphaLISA assay relative to control
[16] = target: Histone acetyltransferase KAT5 (Homo sapiens, UniProt Q92993); assay: Inhibition of GST tagged human TIP60 expressed in Sf9 cells using biotinylated H4 (1 to 25)-GSGSK peptide as substrate incubated for 1 hr by AlphaLISA assay
[17] = target: Histone acetyltransferase KAT2A (Homo sapiens, UniProt Q92830); assay: Inhibition of GST tagged human GCN5 (323 to end residues) expressed in Sf9 cells using biotinylated H3 (1 to 21)-GGK peptide as substrate incubated for 1 hr by AlphaLISA assay
[18] = target: Histone acetyltransferase KAT2B (Homo sapiens, UniProt Q92831); assay: Inhibition of GST tagged human PCAF (431 to end residues) expressed in Sf9 cells using biotinylated H3 (1 to 21)-GGK peptide as substrate incubated for 1 hr by AlphaLISA assay
[19] = target: Histone acetyltransferase KAT7 (Homo sapiens, UniProt O95251); assay: Inhibition of MYST2 (unknown origin) using biotinylated H4 (1 to […])-GSGSK peptide as substrate incubated for 1 hr by AlphaLISA assay

IC50 [1] [nM] | remaining at 0.5 h [2] [%] | IC50 [3] [nM] | Structure (SMILES) | also measured
910 | 57 | 1450 | COc1ccc(C2(C(=O)N3C[C@@H](O)C[C@@H]3C(=O)Nc3cccc4[nH]ncc34)CCCC2)cc1 | –
140 | – | 610 | COc1ccc(C2(C(=O)N3CCOCC(Cc4cccc5[nH]ncc45)C3)CCCCC2)cc1 (stereo not given) | –
180 | 10 | – | COc1ccc(C2(C(=O)N3CCC[C@@H]3C(=O)Nc3cccc4[nH]ncc34)CCCC2)cc1 | –
130 | – | 380 | COc1ccc(C2(C(=O)N3CCOCC(Cc4cccc5[nH]ncc45)C3)CCCC2)cc1 (stereo in doubt; 3) | –
– | 47 | 1030 | COc1ccc(C2(C(=O)N3C[C@H](O)C[C@@H]3C(=O)Nc3cccc4[nH]ncc34)CCCC2)cc1 | –
150 | 37 | 450 | COc1ccc(C2(C(=O)N3CS(=O)(=O)C[C@@H]3C(=O)Nc3cccc4[nH]ncc34)CCCC2)cc1 | Activity (LK-2 [4]): Dde; fraction unbound [5]: 0.952; Papp [6]: > 50 ×10⁻⁶ cm/s; solubility [7]: 63 µg/mL (≈ 131 µM); IC50 [8]: 700 nM; logD [9]: 3.2; Papp [10]: > 50 ×10⁻⁶ cm/s; IC50 (CREB-binding protein [11]): 40 nM; Activity (LK-2 [12]): Dde; solubility [13]: 50 µg/mL (≈ 104 µM)
170 | – | 420 | COc1ccc(C2(C(=O)N3CCC[C@@H]3C(=O)Nc3cccc4[nH]ncc34)CCCCC2)cc1 | –
220 | – | 5020 | COc1ccc(C2(C(=O)N(C)[C@H](C)C(=O)Nc3cccc4[nH]ncc34)CCCC2)cc1 | –
– | – | – | CC1=NN(c2ccc(C(=O)O)cc2)C(=O)/C1=C\c1ccc(-c2cc(C)c(C)cc2[N+](=O)[O-])o1 | IC50 [14]: 21000 nM; inhibition (CREB-binding protein [15]): 29%; IC50 [16]: 37200 nM; IC50 [17]: 47400 nM; IC50 [18]: 38900 nM; IC50 [19]: 7810 nM; IC50 (CREB-binding protein [11]): > 50000 nM
56 | 5 | 460 | COc1ccc(C2(C(=O)N3C[C@H](F)C[C@@H]3C(=O)Nc3cccc4[nH]ncc34)CCCC2)cc1 | –
610 | – | 2240 | COc1ccc(C2(C(=O)N3CCOCC(Cc4cccc5[nH]ncc45)C3)CCOCC2)cc1 (stereo not given) | –
50 | – | 130 | COc1ccc(C2(C(=O)N3CCOCC(Cc4cccc5[nH]ncc45)C3)CCCC2)cc1 (single isomer, unassigned; (+)) | –
– | – | > 25000 | COc1ccc(C2(C(=O)N3CCOCC(Cc4cccc5[nH]ncc45)C3)CCCC2)cc1 (single isomer, unassigned; (-)) | –
190 | – | 1010 | COc1ccc(C2(C(=O)N(C)CC(=O)Nc3cccc4[nH]ncc34)CCCCC2)cc1 | –
